Literature values in article PMC6151383 (Molecules : A Journal of Synthetic Chemistry and Natural …, 2017).

Test system: Staphylococcus aureus, including a methicillin-resistant strain (MRSA), M. tuberculosis and Mycobacterium avium
Conditions: range over S. aureus; cited from earlier work

For O=S(=O)(Nc1ncccn1)c1ccc(N=Cc2cc(Cl)ccc2O)cc1 [Compound 2c, 4-[(5-Chloro-2-hydroxybenzylidene)amino]-N-(pyrimidin-2-yl)benzenesulfonamide], the MIC values is listed as 125 to 250 µM.
